The subject of one test is Pseudomonas. Nature of the test: In vitro antibacterial activity against Pseudomonas relative to thienamycin. Format: functional.
The next test deals with Serratia. Nature of the test: In vitro antibacterial activity against Serratia relative to thienamycin. Format: functional.
In test [1] the target is T1, Dipeptidase 1 (Sus scrofa) (UniProt P22412).
T1 sequence (whole entry): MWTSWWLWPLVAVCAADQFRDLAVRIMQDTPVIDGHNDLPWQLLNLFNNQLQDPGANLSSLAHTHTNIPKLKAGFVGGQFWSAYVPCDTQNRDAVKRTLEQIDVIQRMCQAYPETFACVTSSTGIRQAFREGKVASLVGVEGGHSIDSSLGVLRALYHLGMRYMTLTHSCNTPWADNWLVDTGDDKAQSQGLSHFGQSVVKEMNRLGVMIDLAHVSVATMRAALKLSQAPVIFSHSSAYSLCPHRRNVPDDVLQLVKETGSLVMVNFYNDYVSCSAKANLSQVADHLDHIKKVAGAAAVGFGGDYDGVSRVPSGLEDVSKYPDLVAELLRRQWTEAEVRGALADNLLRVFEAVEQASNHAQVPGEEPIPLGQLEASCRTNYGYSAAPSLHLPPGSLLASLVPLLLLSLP
In words: Susceptibility of compound towards porcine Dehydropeptidase-1 relative to imipenem as […] was calculated.

For the next test, the system named is Staphylococcus aureus. In words: In vitro antibacterial activity against Staphylococcus aureus relative to thienamycin. Type of test: functional.
In another test the test system is Escherichia coli. In words: In vitro antibacterial activity against Escherichia coli relative to thienamycin. Type of test: functional.
The subject of another test is Proteus. In words: In vitro antibacterial activity against Proteus relative to Thienamycinv. Format: functional, Proteus sp.
The next test has as its system Klebsiella. In words: In vitro antibacterial activity against Klebsiella relative to thienamycin. Format: functional.
The next test concerns Enterobacter. In words: In vitro antibacterial activity against Enterobacter relative to thienamycin. Format: functional.
Another test concerns Enterococcus. Nature of the test: In vitro antibacterial activity against Enterococcus relative to thienamycin. Format: functional.

Molecules are shown by their SMILES.

Regarding `C[C@@H](O)[C@H]1C(=O)N2C(C(=O)O)=C(c3ccc(CN4CCOCC4)cc3)C[C@H]12`, the Relative potency in the test with Pseudomonas was 0.03; in the test with Serratia, 8; in the test on Staphylococcus aureus, 0.6; with Escherichia coli, 3.5; in the test with Proteus it was 10.6; in the test with Klebsiella, 1.4. In addition, the results for the Relative potency with Enterobacter and in the test on Enterococcus were 5.3 and 8.6, respectively. The Susceptibility in test [1] was 0.13.

(Values after ChEMBL document CHEMBL1151043, “The synthesis and antibacterial activity of 2-para-quarternary ammoniomethylphenyl-carbapenems” (1993).)
